Measurements published in patent EP0409227A2, “Pyrimidine nucleosides, their preparation and pharmaceutical preparations” (MATTHES, Eckart, Dr., priority 1989, dated 1991).
Where two headings read alike, the source gives them in different places.

Legend:
MT4 Zellen = assay: Cytotoxicity: inhibition of proliferation of MT4 cells; assay type: cell-based
Description: Unter dem Aspekt einer möglichen Anwendung der Verbindungen am Menschen wurden ihre antiproliferativen Wirkungen an menschlichen Zellkulturen wie früher beschrieben getestet (E. Matthes et al. Biochem.Biophys.Res.Commun. 153, 825 (1988)). Dabei zeigte sich, daß z.B. 2′,3′-Didesoxy-3-fluor-5-methylcytidin gegenüber der T-Zellinie MT4 eine CD₅₀ von 190 µM aufweist. In einem weiteren Test, in dem eine mögliche Wachstumshemmung koloniebildender Zellen des Knochenmarks der Maus (CFU-GM) untersucht wurde (E. Matthes et al. Biochem.Biophys.Res.Commun. 165, 488 (1989), erwies sich diese Verbindung ebenfalls als kaum proliferationshemmend (CD₅₀ > 500 µM). Die Wirkung weiterer Verbindungen auf die Proliferation von MT4-Zellen ist in Tabelle 3 zusammengefaßt. Tabelle 3

DNA-Polymerase-beta = target: T1, DNA-Polymerase-beta (Homo sapiens, UniProt P06746); assay: Effect of modified nucleoside triphosphates on cellular DNA polymerase beta; assay type: biochemical; conditions: read-out: ID₅₀ (µM) DNA-Polymerase- beta
T1 construct: Die Isolierung der Enzyme und deren Aktivitätsbestimmung erfolgte entsprechend der Methode von Matthes et al; from tissue
Description: (§1) Um zu prüfen, inwieweit die beschriebene Wirkung auf die HBV-Polymerase selektiv ist, d.h., die zellulären DNA-Polymerasen von einer Hemmung durch die erfindungsgemäßen Nucleosidtriphosphate ausgenommen sind, wurden die zellulären DNA-Polymerasen-alpha und -beta in die Untersuchungen einbezogen. Die Isolierung der Enzyme und deren Aktivitätsbestimmung erfolgte entsprechend der Methode von Matthes et al. (Biomed.Biochim.Acta 44, K63-K73 (1985)). Die Ergebnisse der Tabelle 2 zeigen, daß die für die Replikation der zellulären DNA zuständige DNA-Polymerase alpha weitgehend unbeeinflußt bleibt. Eine 50 %ige Hemmung dieses Enzyms wird mit Ausnahme auch bei Hemmstoffkonzentrationen >100 µM noch nicht erreicht, so daß die DNA-Polymerase-alpha diesen Verbindungen gegenüber als nahezu resistent anzusehen ist. Für die DNA-Polymerase-beta, die als Reparaturenzym zellulärer DNA-Schäden angesehen wird, liegen die ID₅₀- Werte zwischen 1 und >200 µM. Damit besitzt die beschriebene Verbindung eine hohe Wirkungsspezifität. Tabelle 2

DNA-Polymerase-alpha = target: T2, DNA-Polymerase-alpha (Homo sapiens, UniProt P09884); assay: Effect of modified nucleoside triphosphates on cellular DNA polymerase alpha; assay type: biochemical; conditions: read-out: ID₅₀ (µM) DNA-Polymerase- alpha
T2 construct: Die Isolierung der Enzyme und deren Aktivitätsbestimmung erfolgte entsprechend der Methode von Matthes et al; from tissue
T2 sequence (P09884 1-1462): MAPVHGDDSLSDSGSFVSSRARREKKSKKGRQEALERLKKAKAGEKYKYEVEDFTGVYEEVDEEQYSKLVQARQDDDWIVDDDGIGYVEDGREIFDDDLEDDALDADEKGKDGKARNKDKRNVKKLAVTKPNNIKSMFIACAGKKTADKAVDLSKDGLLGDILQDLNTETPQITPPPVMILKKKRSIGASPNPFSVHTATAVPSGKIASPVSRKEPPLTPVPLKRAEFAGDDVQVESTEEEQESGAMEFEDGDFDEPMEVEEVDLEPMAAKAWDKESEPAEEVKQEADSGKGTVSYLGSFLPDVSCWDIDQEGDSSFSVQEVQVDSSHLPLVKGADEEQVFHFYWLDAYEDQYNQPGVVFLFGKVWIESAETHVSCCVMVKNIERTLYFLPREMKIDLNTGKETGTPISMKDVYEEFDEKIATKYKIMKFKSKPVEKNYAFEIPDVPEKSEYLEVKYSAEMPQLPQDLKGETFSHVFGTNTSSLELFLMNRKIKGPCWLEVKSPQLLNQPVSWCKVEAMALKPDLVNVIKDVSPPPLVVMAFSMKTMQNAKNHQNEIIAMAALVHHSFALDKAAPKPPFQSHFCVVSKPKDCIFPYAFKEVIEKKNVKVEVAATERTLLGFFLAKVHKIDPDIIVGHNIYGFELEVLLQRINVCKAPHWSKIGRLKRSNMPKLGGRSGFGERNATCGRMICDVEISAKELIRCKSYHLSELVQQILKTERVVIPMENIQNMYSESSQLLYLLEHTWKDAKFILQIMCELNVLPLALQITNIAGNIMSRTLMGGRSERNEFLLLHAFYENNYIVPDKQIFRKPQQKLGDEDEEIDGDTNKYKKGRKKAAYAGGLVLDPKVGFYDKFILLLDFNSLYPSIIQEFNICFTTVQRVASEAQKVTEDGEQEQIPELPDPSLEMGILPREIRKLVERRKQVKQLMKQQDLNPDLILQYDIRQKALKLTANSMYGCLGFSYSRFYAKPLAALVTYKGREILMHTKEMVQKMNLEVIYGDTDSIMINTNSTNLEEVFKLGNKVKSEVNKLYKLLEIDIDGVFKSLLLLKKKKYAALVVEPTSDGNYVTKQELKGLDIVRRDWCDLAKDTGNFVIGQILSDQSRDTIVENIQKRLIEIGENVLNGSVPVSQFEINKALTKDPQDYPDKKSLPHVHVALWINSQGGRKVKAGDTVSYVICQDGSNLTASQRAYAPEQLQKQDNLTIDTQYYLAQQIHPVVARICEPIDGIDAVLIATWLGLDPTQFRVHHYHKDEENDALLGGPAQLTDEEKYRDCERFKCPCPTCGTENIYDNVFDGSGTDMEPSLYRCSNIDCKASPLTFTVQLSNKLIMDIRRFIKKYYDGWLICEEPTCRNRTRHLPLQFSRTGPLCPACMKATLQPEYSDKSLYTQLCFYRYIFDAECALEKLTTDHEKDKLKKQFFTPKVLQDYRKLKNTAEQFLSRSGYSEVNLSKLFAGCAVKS
Description: as §1

HBV-Polymerase = target: T3, HBV-Polymerase (Hepatitis B virus genotype D subtype ayw, UniProt P03156); assay: Inhibition of HBV polymerase activity by nucleoside triphosphate analogues (method of Kaplan et al.); assay type: biochemical; conditions: 50 % inhibition of HBV polymerase activity; 3 h incubation at 37 °C; read-out: ID₅₀
T3 construct: Es wurde zunächst die Hemmbarkeit der HBV-assoziierten Polymerase; host or cells: virus-associated endogenous polymerase
Description: Das Hepatitis B Virus (HBV) besitzt eine zirkuläre, partiell doppelsträngige DNA, welche nach Infektion einer Leberzelle durch eine viruseigene Polymerase repliziert wird. Dieser Vorgang setzt jedoch die Synthese einer RNA durch eine zelluläre RNA-Polymerase voraus. Nur diese RNA-Matrize - im Zusammenhang mit der Replikation auch als Prägenom bezeichnet - kann von der HBV-Polymerase für die Synthese zunächst eines RNA-DNA Hybrids und dann der doppelsträngigen DNA benutzt werden. Damit verfügt die HBV-Polymerase über eine enzymatische Aktivität, die der einer reversen Transcriptase ähnelt (Will et al., J.Virology 61, 904 (1987)). Es wurde zunächst die Hemmbarkeit der HBV-assoziierten Polymerase durch die 5′-Triphosphate der erfindungsgemäßen Verbindungen untersucht. Dazu wurde die von Kaplan et al. (J.Virology 12, 995 (1973)) angegebene Methode zur Bestimmung der HBV-Polymerase benutzt, wobei die zu testenden Triphosphate den Ansätzen in verschiedenen Konzentrationen zugesetzt wurden. Die Hemmung der Enzymreaktion wurde nach 3-stündiger Inkubation bei 37 °C durch Vergleich mit einem Kontrollwert ermittelt und daraus die Konzentration der zugesetzten Analoga bestimmt, die zu einer 50 %igen Hemmung der HBV-Polymerase-Aktivität führt (ID₅₀). Tabelle 1 zeigt die Ergebnisse, wobei insbesondere 2′,3′-Didesoxy-3′-fluor-5-methylcytidin durch einen Wert ID₅₀ von 0,03 µM herausragt und damit zu den stärksten bisher bekannten Hemmstoffen der HBV-Polymerase zu rechnen ist. Tabelle 1

T3 sequence (P03156 whole entry): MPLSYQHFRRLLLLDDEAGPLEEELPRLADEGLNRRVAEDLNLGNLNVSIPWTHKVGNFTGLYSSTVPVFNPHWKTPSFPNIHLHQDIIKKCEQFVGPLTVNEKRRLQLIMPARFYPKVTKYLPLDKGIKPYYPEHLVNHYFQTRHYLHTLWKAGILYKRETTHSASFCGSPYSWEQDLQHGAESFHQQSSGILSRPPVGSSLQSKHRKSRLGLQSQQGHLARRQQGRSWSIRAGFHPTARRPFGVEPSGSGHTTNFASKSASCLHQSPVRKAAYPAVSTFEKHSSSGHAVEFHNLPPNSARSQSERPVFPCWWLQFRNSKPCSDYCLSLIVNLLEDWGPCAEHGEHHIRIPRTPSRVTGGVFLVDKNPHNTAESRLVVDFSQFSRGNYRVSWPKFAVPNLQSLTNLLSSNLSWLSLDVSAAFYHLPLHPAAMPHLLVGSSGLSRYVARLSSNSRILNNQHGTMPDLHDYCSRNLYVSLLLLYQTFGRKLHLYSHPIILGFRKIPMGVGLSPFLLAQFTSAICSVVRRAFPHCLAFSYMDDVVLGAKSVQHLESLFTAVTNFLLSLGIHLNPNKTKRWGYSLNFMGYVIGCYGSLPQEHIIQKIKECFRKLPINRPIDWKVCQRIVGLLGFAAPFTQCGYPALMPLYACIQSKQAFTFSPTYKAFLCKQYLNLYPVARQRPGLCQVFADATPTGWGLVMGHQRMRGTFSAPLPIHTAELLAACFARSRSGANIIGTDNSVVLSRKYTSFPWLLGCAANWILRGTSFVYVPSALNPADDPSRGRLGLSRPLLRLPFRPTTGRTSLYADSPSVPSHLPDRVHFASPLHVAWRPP

IC50 (DNA-Polymerase-beta) [µM] | IC50 (DNA-Polymerase-alpha) [µM] | IC50 (HBV-Polymerase) [nM] | Structure (SMILES) | CD₅₀ (MT4 Zellen; human, 48 h) [µM] | CD₅₀ (MT4 Zellen) [µM]
– | – | – | Cc1cn([C@H]2C=C[C@@H](CO)O2)c(=O)nc1N [2′,3′-Didehydro-2′,3′-didesoxy-5-methylcytidin] | 205 | –
– | – | – | Nc1nc2c(ncn2[C@H]2C=C[C@@H](CO)O2)c(=O)[nH]1 [2′,3′-Didehydro-2′,3′-didesoxyguanosin] | 155 | –
– | – | – | Nc1nc2c(ncn2[C@H]2C[C@H](N)[C@@H](CO)O2)c(=O)[nH]1 [2′,3′-Didesoxy-3′-aminoguanosin] | 210 | –
– | – | – | Cc1cn([C@H]2C[C@H](N=[N+]=[N-])[C@@H](CO)O2)c(=O)nc1N [2′,3′-Didesoxy-3′-azido-5-methylcytidin] | > 500 | –
– | – | – | Nc1nc2c(ncn2[C@H]2C[C@H](F)[C@@H](CO)O2)c(=O)[nH]1 [2′,3′-Didesoxy-3′-fluorguanosin] | – | 250
– | – | – | Cc1cn([C@H]2CC[C@@H](CO)O2)c(=O)nc1N [2′,3′-Didesoxy-5-methylcytidin] | 110 | –
1.8 | > 200 | 150 | Nc1nc2c(ncn2[C@H]2C[C@H](F)[C@@H](COP(=O)(O)OP(=O)(O)OP(=O)(O)O)O2)c(=O)[nH]1 [FdGTP, 2′,3′-Didesoxy-3′-fluorguanosin-5′-triphosphat] | – | –
> 200 | > 200 | 26000 | Cc1cn([C@H]2C[C@H](N)[C@@H](COP(=O)(O)OP(=O)(O)OP(=O)(O)O)O2)c(=O)nc1N [NH₂MetdCTP, 2′,3′-Didesoxy-3′-amino-5-methylcytidin-5′-triphosphat] | – | –
> 200 | > 200 | 120 | Cc1cn([C@H]2C[C@H](N=[N+]=[N-])[C@@H](COP(=O)(O)OP(=O)(O)OP(=O)(O)O)O2)c(=O)nc1N [N₃MetdCTP, 2′,3′-Didesoxy-3′-azido-5-methylcytidin-5′-triphosphat] | – | –
> 100 | > 200 | 8000 | Cc1cn([C@H]2CC[C@@H](COP(=O)(O)OP(=O)(O)OP(=O)(O)O)O2)c(=O)nc1N [ddMetCTP, 2′,3′-Didesoxy-5-methylcytidin-5′-triphosphat] | – | –
4.5 | > 100 | 1800 | Nc1ncnc2c1ncn2[C@H]1C=C[C@@H](COP(=O)(O)OP(=O)(O)OP(=O)(O)O)O1 [ddeATP, 2′,3′-Didehydro-2′,3′-didesoxyadenosin-5′-triphosphat] | – | –
6 | > 200 | 2500 | Nc1ccn([C@H]2C=C[C@@H](COP(=O)(O)OP(=O)(O)OP(=O)(O)O)O2)c(=O)n1 [ddeCTP, 2′,3′-Didehydro-2′,3′-didesoxycytidin-5′-triphosphat] | – | –
5 | > 150 | 1600 | Nc1nc2c(ncn2[C@H]2C=C[C@@H](COP(=O)(O)OP(=O)(O)OP(=O)(O)O)O2)c(=O)[nH]1 [ddeGTP, 2′,3′-Didehydro-2′,3′-didesoxyguanosin-5′-triphosphat] | – | –
10 | > 200 | 280 | Cc1cn([C@H]2C=C[C@@H](COP(=O)(O)OP(=O)(O)OP(=O)(O)O)O2)c(=O)nc1N [ddeMetCTP, 2′,3′-Didehydro-2′,3′-didesoxy-5-methylcytidin-5′-triphosphat] | – | –

Structure (SMILES) | IC50 (DNA-Polymerase-beta) [µM] | IC50 (DNA-Polymerase-alpha) [µM] | IC50 (HBV-Polymerase) [nM] | CD₅₀ (MT4 Zellen; human, 48 h) [µM] | CD₅₀ (MT4 Zellen) [µM]
Cc1cn([C@H]2C[C@H](Cl)[C@@H](COP(=O)(O)OP(=O)(O)OP(=O)(O)O)O2)c(=O)nc1N [ClMetdCTP, 2′,3′-Didesoxy-3′chlor-5-methylcytidin-5′-triphosphat] | 100 | > 200 | 9000 | – | –
CCc1cn([C@H]2C[C@H](F)[C@@H](COP(=O)(O)OP(=O)(O)OP(=O)(O)O)O2)c(=O)nc1N [FEtdCTP, 2′,3′-Didesoxy-3′-fluor-5-ethylcytidin-5′-triphosphat] | 3 | > 200 | 350 | – | –
Cc1cn([C@H]2C[C@H](F)[C@@H](COP(=O)(O)OP(=O)(O)OP(=O)(O)O)O2)c(=O)nc1N [FMetdCTP, 2′,3′-Didesoxy-3′-fluor-5-methylcytidin-5′-triphosphat] | 1 | > 200 | 30 | – | –
